How the values were obtained:
[1] = system: involucrin; assay: Real-time RT PCR involucrin mRNA, normal human epidermal keratinocytes; type: cell-based; conditions: 10^−8 M, 6 h
Experimental: (§1) RNA was extracted using an Absolutely RNA RT-PCR Miniprep Kit (Stratagene, La Jolla, Calif.). Real time PCR and reverse transcription products were purchased from Applied Biosystems, Foster City, Calif. Reverse transcription was performed using Taqman® Reverse Transcription Reagents. The following PCR products were used: cytokeratin 14: Hs00265033_m1, involucrin: Hs00846307_s1, CYP27A1: Hs00168003_ml, CYP27B1: Hs00168017_ml, 18SrRNA: Hs99999901_s1. The reaction was performed with Taqman® Universal PCR Master Mix; data were collected on an ABI Prism 7700 and analyzed on Sequence Detector 1.9.1. Specific gene amounts were related to 18SrRNA by comparative CT method.

[2] = system: HaCaT keratinocytes; assay: Colony forming (clonogenicity) assay in HaCaT keratinocytes; type: cell-based, human; conditions: 10^−8 M, 10 days
Experimental: HaCaT and human adult epidermal keratinocytes were cultured and DNA synthesis experiments were performed as described previously (26). Cells were plated in 6-well plates at a density of 20 cells/cm^2 in DMEM (Cellgro, Herndon Va.) containing 5% charcoal-treated fetal bovine serum (Hyclone, Logan, Utah), 1% antibiotic solution (PSA, Sigma, St. Louis, […].) and vehicle or secosteroids. Cells were incubated in 37° C. for 10 days with media being changed every 72 hr. Cells were fixed with 4% paraformaldehyde in PBS overnight, stained with 0.5% crystal violet in PBS for 15 min, rinsed and air-dried. The number and size of the colonies were measured using an ARTEK counter 880 (Dynex Technologies Inc., Chantilly, Va.). Colony forming units were calculated as follows: number of colonies (size>0.5 mm) was divided by the number of cells plated and multiplied by 100.

[3] = system: CYP27A1; assay: Real-time RT PCR CYP27A1 mRNA, normal epidermal keratinocytes; type: cell-based, human; conditions: 10^−8 M, 24 h
Experimental: as §1

[4] = system: involucrin; assay: Involucrin protein expression in HaCaT (flow cytometry, microscopy); type: cell-based, human; conditions: 10^−8 M, 24 h, flow cytometry
[5] = system: HaCaT keratinocytes; assay: Forward and side scatter (cell size, granularity) of HaCaT keratinocytes; type: cell-based, human; conditions: HaCaT; 20-hydroxycholecalciferol at 0.1 nM
Experimental: The FL-1 signal (collected from 10,000 events in side scatter/forward scatter window after debris exclusion) was recorded. Forward (relative to cell size) and side (relative to cell granularity) scatter histograms were generated and mean signal intensity was recorded. FL-1 signal values are presented as dMFI (difference between mean fluorescence intensity of sample stained with specific and isotype control antibody). Scatter signal values are presented as MSI (mean signal intensity). Signal intensities were analyzed with Cell Quest (BD Biosciences, San Diego, Calif.) and graphical representations of the FL-1 signal were prepared with WinMdi 2.8 (shareware from Joseph Trotter, The Scripps Research Institute, San Diego, Calif.).

[6] = system: CYP24 promoter; assay: CYP24-Luc reporter in normal epidermal keratinocytes; type: cell-based, human; conditions: 24 h
From the text: The CYP24-Luc construct was a generous gift from Dr Tai Cheng (Boston University Medical Campus, Core Lab Director). It was originally developed by Vaisanen et al. (27). The details of the pLuc construct have been described previously (28-29). Normal epidermal keratinocytes were transfected using Lipofectamine Plus (Invitrogen, Carlsbad, Calif.) in Epilife medium with firefly luciferase reporter gene plasmid and with phRL-TK (expresses Renilla luciferase and serves as normalization control; Promega, Madison, Wis.). After transfection, cells were incubated for 24 hours in EpiLife medium with HKGS. Cells were then transferred to fresh media containing the compounds to be tested or vehicle (ethanol) and incubated for 24 hours. The firefly luciferase and Renilla luciferase signals were recorded with a TD-20/20 luminometer (Turner Designs, Sunnyvale, Calif.); background luminescence was subtracted and the resulting promoter-specific firefly signal was divided by the Renilla signal (proportional to the number of transfected cells). The values obtained were divided by the mean of control (untreated) cells.

[7] = system: CYP27B1; assay: Real-time RT PCR CYP27B1 mRNA, normal epidermal keratinocytes; type: cell-based, human; conditions: 10^−8 M, 1 h
Experimental: as §1

[8] = target: T1, rat CYP24 (Rattus norvegicus, UniProt Q09128); assay: Metabolism by rat CYP24 in phospholipid vesicles
T1 sequence (Q09128 36-514): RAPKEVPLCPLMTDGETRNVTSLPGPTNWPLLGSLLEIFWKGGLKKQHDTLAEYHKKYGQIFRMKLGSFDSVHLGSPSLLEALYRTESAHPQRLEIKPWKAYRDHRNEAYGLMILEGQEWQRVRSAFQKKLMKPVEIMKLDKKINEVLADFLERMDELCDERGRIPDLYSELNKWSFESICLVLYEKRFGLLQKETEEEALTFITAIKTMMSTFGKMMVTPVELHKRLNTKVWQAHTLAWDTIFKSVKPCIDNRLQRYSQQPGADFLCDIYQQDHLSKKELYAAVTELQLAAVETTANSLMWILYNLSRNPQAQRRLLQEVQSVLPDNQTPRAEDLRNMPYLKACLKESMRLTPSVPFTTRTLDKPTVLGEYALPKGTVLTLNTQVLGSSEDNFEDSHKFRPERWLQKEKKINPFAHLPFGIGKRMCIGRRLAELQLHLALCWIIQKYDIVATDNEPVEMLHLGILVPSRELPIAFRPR
Experimental: Samples (typically 0.25-1.0 mL) were incubated at 37° C., with shaking, then reactions terminated by the addition of 2.5 mL ice-cold dichloromethane and vortexing. After phase separation aided by centrifugation, the lower organic phase was retained and the upper aqueous phase was extracted twice more with 2.5 mL aliquots of dichloromethane. The dichloromethane was removed under nitrogen and the residual sample dissolved in solvent for HPLC analysis.
(§2) To test enzymatic metabolism of 20S(OH)D3 and 20R(OH)D3, the substrates were incorporated into phospholipid vesicles with the ratio of substrate to phospholipid being 0.025 mol/mol phospholipid. Vesicles were incubated with 2 μM bovine CYP11A1 or 0.06 μM human CYP27B1 for up to 10 min. To test enzymatic metabolism of 20(OH)D3 in CYP24, the substrate was incorporated into phospholipids vesicles with 0.15-0.5 μM CYP24. To test enzymatic metabolism of 20(OH)D3 in CYP27A1, purified CYP27A1 was preincubated with the vesicles for 6 min at 37° C. Adrenodoxin was added last to initiate the reaction. For kinetic experiments, the incubations were typically 0.5 mL and were carried out over the initial linear period of the reaction (10 min for vitamin D3 and cholesterol and 30 min for 20(OH)D3).

[9] = target: T2, cytochrome P450scc (Bos taurus, UniProt P00189); assay: Metabolism by cytochrome P450scc in cyclodextrin; conditions: substrate in 0.45% cyclodextrin
T2 sequence (P00189 40-520): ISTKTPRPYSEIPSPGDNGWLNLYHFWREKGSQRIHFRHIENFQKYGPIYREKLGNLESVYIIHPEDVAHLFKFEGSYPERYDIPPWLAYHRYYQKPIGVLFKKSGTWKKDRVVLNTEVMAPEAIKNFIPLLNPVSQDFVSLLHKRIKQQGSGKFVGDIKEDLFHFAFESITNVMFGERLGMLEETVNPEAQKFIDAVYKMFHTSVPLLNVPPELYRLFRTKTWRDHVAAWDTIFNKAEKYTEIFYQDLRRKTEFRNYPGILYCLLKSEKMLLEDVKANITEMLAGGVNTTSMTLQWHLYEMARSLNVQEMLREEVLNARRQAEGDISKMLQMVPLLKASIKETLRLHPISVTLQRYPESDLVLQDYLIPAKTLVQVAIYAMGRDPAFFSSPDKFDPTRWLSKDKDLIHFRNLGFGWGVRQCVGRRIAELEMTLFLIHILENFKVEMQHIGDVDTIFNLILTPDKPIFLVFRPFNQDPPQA
Experimental: Adrenodoxin was expressed in Escherichia coli and purified as described before (41). […] Metabolites were analysed using a Perkin Elmer HPLC equipped with a C18 column (Brownlee Aquapore, 22 cm×4.6 mm, particle size 7 μm).

[10] = target: T3, CYP27A1 (Homo sapiens, UniProt Q02318); assay: Metabolism by CYP27A1 (cyclodextrin or phospholipid vesicles); conditions: cyclodextrin
T3 sequence (Q02318 34-531): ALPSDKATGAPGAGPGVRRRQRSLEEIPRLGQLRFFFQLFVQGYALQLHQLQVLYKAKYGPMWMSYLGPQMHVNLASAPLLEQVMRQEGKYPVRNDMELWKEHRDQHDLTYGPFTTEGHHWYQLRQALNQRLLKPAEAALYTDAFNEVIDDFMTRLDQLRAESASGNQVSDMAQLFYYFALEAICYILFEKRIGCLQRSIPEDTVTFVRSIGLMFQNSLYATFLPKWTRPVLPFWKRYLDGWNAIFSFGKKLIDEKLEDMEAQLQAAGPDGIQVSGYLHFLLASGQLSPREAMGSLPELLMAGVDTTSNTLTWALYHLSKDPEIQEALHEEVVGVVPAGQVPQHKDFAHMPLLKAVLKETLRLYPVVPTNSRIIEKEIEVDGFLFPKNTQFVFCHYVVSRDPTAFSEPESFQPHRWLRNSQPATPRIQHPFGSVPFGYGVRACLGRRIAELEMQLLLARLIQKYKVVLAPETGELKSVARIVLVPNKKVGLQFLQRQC
Experimental: as §2
Kinetic characterization of the metabolism of 20(OH)D3 by CYP27A1 was carried out with substrate dissolved in either cyclodextrin or phospholipid vesicle. Vitamin D3 and 20(OH)D3 were incubated with 0.4 μM CYP27A1 and 1 μM CYP27A1, respectively, for 10 and 30 min. The products were analyzed by reverse phase HPLC. The hyperbolic curves were fitted using the equation v/[E]=(kcat—[S])/(Km+[S]) where v is reaction velocity, [E] is the CYP27A1 concentration, and [S] the substrate concentration.

[11] = system: Col1A1 mRNA; assay: Real time RT PCR Col1A1 mRNA, TGF-b1 stimulated skin fibroblasts; type: cell-based; conditions: human skin fibroblasts
Experimental: Additional studies using human skin fibroblasts were performed employing a type I collagen specific ELISA Chondrex, and real time RT PCR to quantitate type I collagen protein and Col1A1 mRNA expression in culture of human fibroblast stimulated by TGF-b1 in the presence and absence of 17,20S(OH)2pD3 and/or 20(OH)D3. These studies confirmed that Type I collagen protein production that was induced by TGF-b1 and that Col1A1 mRNA that was induced by TGF-b1 were suppressed by these analogues (FIGS. 44A-44B).

## C=C1CC[C@H](O)C/C1=C/C=C1\CCC[C@]2(C)[C@@H]([C@H](C)CCCC(C)(C)O)CC[C@@H]12 [25-hydroxycholecalciferol, (5Z,7E)-9,10-secocholesta-5,7,10(19)-triene-3β,25-diol, reference compound]
[1]
  stimulation of involucrin mRNA: ~2.1 fold
[2]
  inhibition of colony formation: no significant effect
[3]
  inhibition of CYP27A1 expression: ~1.9 fold
[4]
  increase in the expression of involucrin: negligible
[5]
  forward scatter, mean signal intensity (MSI): 254±0.06
[6]
  stimulation of transcriptional activity of the CYP24 promoter: ~12 fold
[7]
  increase of CYP27B1 expression: ~1.3 fold
[8]
  Km: 0.0080±0.0016 mol substrate/mol phospholipid
[8]; phospholipid vesicles
  kcat: 52.6±2.9 mol/min/mol CYP24
  kcat higher than that for 1,25(OH)2D3: 3.8 fold

## C=C1CC[C@H](O)C/C1=C/C=C1\CCC[C@]2(C)[C@@H]([C@H](C)CCCC(C)C)CC[C@@H]12 [cholecalciferol, (5Z,7E)-9,10-secocholesta-5,7,10(19)-triene-3β-ol, reference compound]
[9]
  kcat: 19.7±0.9 mol/min P450scc
[10]
  kcat: 0.0283 ± 0.00233 s⁻¹

## C=C1CCC(O)CC1=CC=C1CCCC2(C)C1CCC2(O)C(C)O [17,20Rdi(OH)pD, (5Z,7E)-(20R)-9,10-secopregna-5,7,10(19)-triene-3β,17α,20-triol]
[11]
  TGF-b1 induced Col1A1 mRNA: reduce TGF-β1 induced Col1A1 mRNA

Source: patent publication US20120258938A1, “Enzymatic Production or Chemical Synthesis and Uses for 5,7-Dienes and UVB Conversion Products Thereof” (priority 2008, published 2012)
